Data set [1] can be described thus: Mass balance study in humans using 14C-labelled pretomanid. In kind it is in vivo. To be noted: human, plasma, oral; 6% of the pretomanid therapeutic AUC0-24, 200 mg/day; read-out: Estimated human AUC0-24 of M50.
On the set-up of data set [2]: method as in unpublished data. The note with it: humans, 14C-labelled pretomanid; ref unpublished data; cited from earlier work.
Data set [3] in a line: Plasma exposure in the mouse micronucleus study. Format: in vivo, mice.
For another data set, the system named is mouse lymphoma cells. In words: Non-GLP in vitro mouse lymphoma assay. Format: cell-based. The note with it: concentrations up to 1000 μg/mL, data not shown.
Another data set concerns CHO-K1 cells. Put plainly: Chromosome aberration assay in CHO cells. The method, then: CHO-K1 cells (American Type Culture Collection) were exposed to pretomanid at 22.5 to 360 μg/mL for 4 hours with and without added S9 mix and for 20 hours without added S9 mix. All cells were harvested 20 hours after treatment initiation. The assay was performed using standard procedures, [13] including duplicate cultures and appropriate negative and positive controls. Under each set of conditions, three test concentrations were evaluated. The highest was the lowest precipitating concentration, and two additional lower concentrations also were evaluated.
After incubation, cells were harvested and placed on slides, which were examined microscopically to determine relative mitotic index and to evaluate metaphase spreads for structural or numerical chromosome aberrations. Where possible, 200 metaphase spreads were evaluated. The mean numbers of aberrations in various cultures were compared to reach conclusions about assay validity and clastogenic potential.

Data set [4] relates to CD-1(ICR) BR mice, bone marrow erythrocytes. Put plainly: Bone marrow micronucleus assay in mice. In kind it is in vivo. The method, then: Groups of male CD-1®(ICR) BR mice were given single oral doses of vehicle (0.4% CMC), positive control article, or pretomanid at 125, 500 or 2000 mg/kg and then were euthanized approximately 24 or 48 hours later to harvest femoral bone marrow. Bone marrow was mounted on slides and stained with May-Grünwald solution and Giemsa. For each mouse, 500 red blood cells were examined to determine the ratio of immature red blood cells (polychromatophilic erythrocytes or PCEs) to mature red blood cells (normochromatophilic erythrocytes of NCEs) and 2000 PCEs were examined to determine the ratio of micronucleated PCEs (mnPCEs) to normal PCEs.
The mean PCE-to-NCE ratios in various groups were compared to reach conclusions about assay validity and effects on erythropoiesis. The mean mnPCE-to-PCE ratios in various groups were compared to reach conclusions about assay validity and clastogenicity. Comparisons were made using an analysis of variance on untransformed mnPCE-to-PCE ratios for each mouse and on untransformed PCE-to-NCE ratios when the variances were homogeneous. Ranked proportions were used for heterogeneous variances. […] Comparisons were made at the 5% probability level.

For `O=[N+]([O-])c1cn2c(n1)OC[C@@H](O)C2` [M50], the AUC(0-t) in data set [1] was around 3 µg·h/mL. In data set [2], the “M50 metabolite as % of the parent compound” value is around 6%.

Regarding `O=[N+]([O-])c1cn2c(n1)OC[C@@H](OCc1ccc(OC(F)(F)F)cc1)C2` [Pretomanid, (6S)-2-nitro-6-{[4-(trifluoromethoxy)benzyl]oxy}-6,7-dihydro-5H-imidazo[2,1-b][1,3]oxazine], in data set [3] (male, CD-1(ICR) BR, mouse, single oral dose 2000 mg/kg, plasma), the Cmax was found to be 36000 ng/mL. Further, the AUC(0-t) in data set [3] (male, CD-1(ICR) BR, mouse, single oral dose 2000 mg/kg, plasma, read-out: Mean AUClast) was determined as 1140 µg·h/mL. For the same compound, in data set [3] (single oral 125 to 2000 mg/kg), the “Dose proportionality of plasma exposure (Cmax and AUC)” value is reported as “increased less than proportionally with dose level”. Also, the “Genotoxicity in mouse lymphoma assay” value with mouse lymphoma cells was “negative”. Further, the “Cytotoxicity in CHO cells” value in the data set with CHO-K1 cells (22.5 to 360 μg/mL, 4 h ±S9, 20 h −S9) is given as “no cytotoxicity was observed”. Besides, in the data set with CHO-K1 cells (any concentration, P>0.05), the “Frequency of chromosome aberrations” value is listed as “did not significantly increase”. Besides, the “Clastogenic potential in mammalian cells in vitro” value in the data set with CHO-K1 cells (up to 360 μg/mL, 4 h ±S9, 20 h −S9) is given as “negative”. Also, the mnPCE-to-PCE ratio entry in data set [4] (any dose level (125, 500, 2000 mg/kg), 24 or 48 h) is recorded as “did not significantly increase”. Moreover, in data set [4] (single oral 125, 500 or 2000 mg/kg), the “Effect on erythropoiesis (PCE:NCE ratio)” value is “did not affect erythropoiesis”. In addition, the “Clastogenic potential in vivo” value in data set [4] (single oral doses up to 2000 mg/kg) was “negative”.

For orientation: Cmax means the highest concentration seen after dosing.

These data come from PMC9411704, “Assessment of the Carcinogenic Potential of Pretomanid in Transgenic Tg.rasH2 Mice” (International Journal of Toxicology, 2022).
